Laboratory results published in patent US20040057926A1, “Modulation of the immune response through the manipulation of arginine levels” (LSU Medical Center, priority 2002, published 2004).

Assays:
[1] = tested on: peritoneal macrophages (PM); test: Extra-cellular L-Arg concentration in supernatants of peritoneal macrophages (HPLC); format: cell-based, mice; conditions: for extra-cellular L-Arg levels (mean of three experiments): L-Arg 2 mM, NOHA 100 μM, Nor-NOHA 50 μM
Protocol: Jurkat T-cells, a CD4^+ cell line (Clone E6-1) (ATCC, Manassas, Va.) and normal stimulated T-cells were used to test the effect of ASE I, ASE II and iNOS produced by PM on CD3ζ expression. Six-week old female C57BL/6 mice were used to isolate peritoneal macrophages (PM). Briefly, 3 ml of thioglycolate-brewer (Becton Dickinson, San Jose, Calif.) were injected into the peritoneal cavity of mice for 3 days. Mice were then sacrificed and PM isolated by washing the peritoneum with HBSS. After 2 days of culture in RPMI with 4% fetal bovine serum, unattached cells were washed off and attached cells were used in co-cultures with Jurkat or normal T-cells.
(§1) PM were cultured in 6 well plates in RPMI containing 150 μM L-Arg and stimulated with murine rIL-4 (50 U/ml) and murine rIL-13 (50 ng/ml), or murine rIFN-γ (100 U/ml) for 24 hours. Then 1×10^6 normal T-cells stimulated with anti-CD3 plus anti-CD28 or 1×10^6 Jurkat cells, were cultured in the top chamber of a transwell system having 0.4 μm pores (Falcon, Franklin lakes, N.J.). CD3ζ expression was measured in Jurkat cells or T lymphocytes at different time points. PM were detached using trypsin/EDTA and the expression of protein and RNA for CAT-2B, ASE I, ASE II and iNOS was tested by western blot and northern blot respectively. Cytoplasmic extracts from PM were used to test ASE activity. Supernatants from stimulated PM were used to measure NO production using the Griess reagent method (Molecular Probes, Eugene, Oreg.). In addition, the extra-cellular concentration of L-Arg was tested in supernatants by HPLC (Dr. Gu Yao Wu laboratory, University of Texas) as described previously. O'Quinn, P. R., D. A. Knabe, and G. Wu. 2002. Arginine catabolism in lactating porcine mammary tissue. J Anim Sci. 80:467-474.

[2] = tested on: Jurkat cells; test: Co-culture in transwells of stimulated PM and Jurkat cells, CD3ζ expression; format: cell-based
Protocol: as §1
Flow cytometry analysis was performed as previously described. Taheri, F., J. B. Ochoa, Z. Faghiri, K. Culotta, H. J. Park, M. S. Lan, A. H. Zea, and A. C. Ochoa. 2001. L-Arginine regulates the expression of the T-cell receptor zeta chain (CD3zeta) in Jurkat cells. Clin Cancer Res 7:958s-965s. Briefly, 5×10^5 Jurkat cells or T lymphocytes were washed once with Dulbecco phosphate-buffered saline 1× (D-PBS) and resuspended in 200 μL of D-PBS containing 1 μg of anti-CD3ε or isotype control. Cells were incubated for 15 min at 4° C., washed with D-PBS and resuspended in 200 μl D-PBS containing 500 μg/ml of digitonin plus 1 μg of anti-CD3ζ or 1 μg of isotypic control. Cells were incubated for 8 minutes after which they were washed and resuspended in 400 μl of D-PBS. Fluorescence acquisition and analysis were done using a Coulter-EPICS XL flow cytometer (Beckman-Coulter) with a 488 nm argon laser. The data were expressed as mean channel fluorescence intensity (MFI).

[3] = tested on: T lymphocytes; test: Co-culture in transwells of stimulated PM and stimulated normal T lymphocytes, CD3ζ expression; format: cell-based, human
Protocol: T-cells were isolated from mononuclear cells of healthy donors by T-cell enrichment columns (R&D Systems, Minneapolis, Minn.) according to manufacturer specifications. T-cell purity (CD3+) ranged between 89-95%. The cycle of internalization and re-expression of the TCR-CD3 complex was induced by T-cell stimulation with 1 μg/ml of anti-CD3, 100 ng/ml of anti-CD28 (Becton Dickinson) and 10 μg/ml of goat anti-mouse IgG (KPL, Gaithersburg, Md.). Cells were stimulated in the absence of L-Arg and added to the co-cultures 24 h after stimulation.
as §1
Flow cytometry analysis was performed as previously described. Taheri, F., J. B. Ochoa, Z. Faghiri, K. Culotta, H. J. Park, M. S. Lan, A. H. Zea, and A. C. Ochoa. 2001. […] Fluorescence acquisition and analysis were done using a Coulter-EPICS XL flow cytometer (Beckman-Coulter) with a 488 nm argon laser. The data were expressed as mean channel fluorescence intensity (MFI).

[4] = tested on: ASE; test: ASE activity assay (L-ornithine production) in PM lysates; format: biochemical, mice; conditions: NOHA 100 μM, Nor-NOHA 50 μM
Protocol: Cell lysates from PM stimulated with IL-4+IL-13 or IFN-γ were tested for ASE activity by measuring the production of L-ornithine. In brief, cell lysates from PM stimulated with IL-4+IL-13 or IFN-γ in the presence or absence of NOHA or Nor-NOHA were added to 50 μl of Tris-HCl (50 mM; pH 7.5) containing 10 mM MnCl2. This mixture was heated at 55-60° C. for 10 min to activate ASE. The hydrolysis reaction from L-Arg to L-ornithine was identified by a colorimetric assay after the addition of ninhydrin solution and incubation at 37° C. for 1 h.

[5] = tested on: ASE I; test: Western blot for ASE I in PM cytoplasmic extracts; format: cell-based, mice
Protocol: Cytoplasmic extracts from PM, Jurkat cells or T lymphocytes were prepared as previously reported. Taheri, F., J. B. Ochoa, Z. Faghiri, K. Culotta, H. J. Park, M. S. Lan, A. H. Zea, and A. C. Ochoa. 2001. L-Arginine regulates the expression of the T-cell receptor zeta chain (CD3zeta) in Jurkat cells. Clin Cancer Res 7:958s-965s. Briefly, cells were resuspended in lysis buffer (50 mM HEPES, 150 mM NaCl, 5 mM EDTA, 1 mM NaOV4 and 0.5% Triton) containing 50 μg/ml of aprotinin, 50 μg/ml of leupeptin, 100 μg/ml of trypsin-chymotrypsin inhibitor and 2 mM PMSF. Lysates were centrifuged at 3000×g for 10 min at 4° C. Cytoplasmic extracts from Jurkat or T-cells were immunoblotted for CD3ζ and CD3ε. The expression ASE I, ASE II and iNOS was detected by immunoblot using PM extracts. GAPDH was used as housekeeping protein. Cytoplasmic extracts were electrophoresed in 12 or 8% Tris-Glycine gels (Novex, San Diego, Calif.), transferred to PVDF membranes and immunoblotted with the appropriate antibodies. The reactions were detected using the ECL kit (Amersham-Pharmacia).

[6] = tested on: 3LL lung carcinoma; test: Anti-tumor effect on 3LL lung carcinoma in C57Bl/6 mice; format: in vivo
Protocol: The anti-tumor effect of arginase inhibitor Nor-NOHA was also measured on these tumor cells. C57Bl/6 mice were injected with one million 3LL lung carcinoma cells on the flank. […] Control mice received normal saline solution. Tumors were measured and the tumor volume was calculated in cubic […]. […] Materials and methods for this example were similar to those described in the above examples.

[7] = tested on: CAT-2B; test: CAT-2B mRNA expression in PM (northern blot); format: cell-based, mice
From the text: Anti-CD3ε-FITC, anti-CD3ζ-PE (Beckman-Coulter, Miami, Fla.) were used for flow cytometry. Mouse IgG1-FITC and mouse IgG1-PE (Beckman-Coulter) were used as isotype controls. Monoclonal antibodies against CD3ζ (Santa Cruz Biotechnologies, Santa Cruz, Calif.), CD3ε (DAKO, Carpinteria, Calif.), iNOS (Santa Cruz Biotechnologies), ASE I (Transduction-Becton Dickinson) and ASE II (a kind gift of Dr. Sidney Morris Jr) were used for western blots. To test the expression of CAT transporters mRNA, specific amplification products from RT-PCR of CAT-1, CAT-2A, CAT-2B and CAT-3 were purified from agarose gels and used as probes to detect CAT expression by northern blot. Murine full-length cDNA for glyceraldehyde-3 phosphate dehydrogenase (GAPDH) (1.6 Kb) (Clontech, Palo Alto, Calif.) was used as housekeeping control.
Two million PM stimulated with IL-4+IL-13 or IFN-γ were used for RNA extraction using lysis with TRIzol (Invitrogen-Gibco) following the manufacturer's specifications. Four micrograms of total RNA from each sample were electrophoresed under denaturing conditions, blotted onto nytran membranes (Schleicher & Schuell Inc, Keene, N.H.) and cross-linked by UV irradiation. Membranes were pre-hybridized at 42° C. in ULTRAhyb buffer (Ambion, Austin, Tex.) and hybridized overnight with 1×10^6 cpm/mL of ^32P-labeled probe. […]

Row | Molecule | extra-cellular L-Arg levels (mean of three experiments) ([1]; Non-stimulated PM) [µM] | extra-cellular L-Arg levels (mean of three experiments) ([1]; PM stimulated with IL-4 + IL-13) [µM] | rapid decrease in the extra-cellular levels of L-Arg ([1]; PM stimulated with IL-4+IL-13) | CD3ζ in Jurkat cells co-cultured with PM stimulated with IL-4+IL-13 ([2]; NOHA 100 μM, Nor-NOHA 50 μM, L-Arg 2 mM, L-NIL 5 μg/ml, catalase 200 U/ml, L-NMMA, L-NNA, L-NAME 1 mM) | CD3ζ in normal stimulated T lymphocytes co-cultured with IL-4+IL-13 activated PM [3] | intracellular ASE activity [4] | ASE I up regulation after IL-4+IL-13 stimulation ([5]; NOHA 100 μM, Nor-NOHA 50 μM) | tumor growth (tumor volume) ([6]; 20 or 40 mgs/kg subcutaneously, contralateral flank) | tumor growth, comparison of doses ([6]; 40 mgs/kg, the highest dose tested) | change of extra-cellular L-Arg by stimulated PM ([1]; similar to unstimulated PM) | expression of CD3ζ and CD3ε in Jurkat cells co-cultured with cytokine-stimulated PM ([2]; rIL-4 50 U/ml, rIL-13 50 ng/ml, rIFN-γ 100 U/ml) | CD3ζ in stimulated T-cells co-cultured with cytokine-stimulated PM ([3]; transwells) | ASE I expression in PM stimulated with cytokines ([5]; 24 hours) | CAT-2B mRNA expression in stimulated PM [7]
1 | N=C(NO)NCC[C@H](N)C(=O)O [Nor-NOHA, N(omega)-hydroxy-nor-l-arginine] | 109.8 | 73.8 | partially blocked the rapid decrease | prevented the decrease of CD3ζ | prevented the loss of CD3ζ | blocked intracellular ASE activity | did not prevent ASE I up regulation | significant arrest of tumor growth | most effective | – | – | – | – | –
2 | IFN-γ: murine rIFN-γ (100 U/ml), Th1 cytokine used to stimulate PM (protein, UniProt P01580 23-155, looked up) Interferon gamma: HGTVIESLESLNNYFNSSGIDVEEKSLFLDIWRNWQKDGDMKILQSQIISFYLRLFEVLKDNQAISNNISVIESHLITTFFSNSKAKKDAFMSIAKFEVNNPQVQRQAFNELIRVVHQLLPESSLRKRKRSRC | – | – | – | – | – | – | – | – | – | moderate decrease in L-Arg | did not alter CD3ζ or CD3ε expression | normal cycle of internalization and re-expression of CD3ζ within 48 hours | decrease ASE I expression | no increase in CAT-2B mRNA
